Several values for one entry are separate records, joined by “and”; a condition that tells them apart may be missing. Equal entries are not always repeated. Entries after “also recorded” stand apart in the source; their conditions may differ.
Legend:
[1] = target: pSTAT3 and total STAT3 in H1975 cells (Homo sapiens, UniProt P40763)
[2] = target: T1, pSTAT3-ubiquitin complexes in H1975 cells (Homo sapiens, UniProt P40763); assay: p-STAT3 immunoprecipitation and ubiquitin immunoblot; type: cell-based; conditions: H1975, 100 nM, 24 hr post-transfection
T1 construct: Post-transfection with either 100 nM CS3D or CS3M, H1975 were lysed in IP lysis buffer; endogenous in cells; host or cells: H1975
T1 sequence (P40763 2-770 limits assumed, one chain of several): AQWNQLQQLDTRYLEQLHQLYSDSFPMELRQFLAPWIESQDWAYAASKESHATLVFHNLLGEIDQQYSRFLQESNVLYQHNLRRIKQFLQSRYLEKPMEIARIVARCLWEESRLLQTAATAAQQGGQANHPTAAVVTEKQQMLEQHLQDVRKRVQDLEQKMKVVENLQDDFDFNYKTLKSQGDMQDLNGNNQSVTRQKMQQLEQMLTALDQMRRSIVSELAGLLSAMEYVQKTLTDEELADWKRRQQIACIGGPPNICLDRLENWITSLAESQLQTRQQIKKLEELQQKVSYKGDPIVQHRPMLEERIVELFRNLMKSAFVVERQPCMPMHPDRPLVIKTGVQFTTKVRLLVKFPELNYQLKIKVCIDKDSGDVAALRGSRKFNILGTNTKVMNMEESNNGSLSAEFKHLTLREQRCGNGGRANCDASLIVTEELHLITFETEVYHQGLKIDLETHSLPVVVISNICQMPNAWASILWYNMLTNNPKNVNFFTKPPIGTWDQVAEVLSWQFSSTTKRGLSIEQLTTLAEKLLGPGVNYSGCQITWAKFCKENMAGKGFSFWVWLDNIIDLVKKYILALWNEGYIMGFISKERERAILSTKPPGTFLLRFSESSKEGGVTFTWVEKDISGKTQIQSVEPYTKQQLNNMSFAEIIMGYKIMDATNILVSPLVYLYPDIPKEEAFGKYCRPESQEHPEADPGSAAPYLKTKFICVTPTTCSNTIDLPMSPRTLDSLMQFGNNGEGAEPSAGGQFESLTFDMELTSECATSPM

[3] = tested on: p-STAT3, p-NFkB, VEGF, CD31, IL-6, COX2 in lungs
[4] = tested on: c-Myc in 201T-derived tumors; assay: c-Myc expression in 201T xenograft tumors (Western blot, RT-qPCR); type: in vivo, nude mice
c-Myc mRNA in 201T cells = assay: RT-qPCR of c-Myc mRNA after EGF, 201T; type: cell-based, human; conditions: single transfection, EGF 10 ng/ml 1.5 hr
[5] = Toxicology studies in mice; type: in vivo; conditions: repeated doses up to 100 mg/kg
Description: The novel mechanism of action combined with the stability of the circularized STAT3 decoy and its low toxicity are favorable features for clinical application. In all experiments with the STAT3 decoy, activity is compared to a mutant version with a T-A base pair replacing a G-C base pair at position 9, differing by the two nucleotides in the base pair.

[6] = tested on: NNK-induced lung preneoplasias and tumors; assay: NNK-induced lung tumor model for chemoprevention, second experiment; type: in vivo, mice
Procedure: To confirm these findings, in a second experiment, in which 24 mg NNK was given (3 mg by ip injection, twice a wk, ×4 wks,), this was followed by one week rest and then immediate treatment with 5 mg/kg CS3D or CS3M, 3 daily injections per week, for 8 weeks. Then 1 week, 8 weeks, or 20 weeks after the end of the treatment course ([…], 21, and 33 weeks after beginning the NNK exposure), necropsy was performed. […] Lung tumors were evaluated by inspecting formalin-fixed lungs visually and by histology after H & E staining. […] Tumor burden (detected by neoplastic growths [adenomas] observed in lung sections) was also assessed at the week 1 timepoint after treatment. Consistent with reduction in preneoplasia, we observed a decrease in the average number of tumors (a 60% reduction in tumors in the CS3D-treated animal) (FIG. 14A).
The chemopreventive effect of CS3D compared to CS3M on lung tumor development was studied in an NNK-induced immunocompetent lung tumor model using the tobacco carcinogen, 4-(methylnitrosamino)-1-(3-pyridyl)-1-butanone, CAS Reg. No. 64091-91-4 (NNK) in mice. The advantages of this model are: NNK is an inducer of KRAS mutations, it is known to induce lung cancers in mice and humans, and the model is immunocompetent. In addition, this is a useful model for studying chemoprevention after exposure to a carcinogenic agent (Hecht S S, et al, Cancer Res. (1980) 40(2):298-302).
After four weeks of NNK exposure, mice are then dosed IV 2 times per week with CS3D or CS3M (5 mg/kg) for eight weeks. The mice are sacrificed after at one week, 8 weeks, and 20 weeks after the end of oligonucleotide dosing to examine lungs. Lungs are formalin-inflated and surface tumors are enumerated visually under a dissecting microscope. The area of each tumor is measured with a analysis tool built in the imaging software LAS v4.7 (Leica). Lungs are also sectioned and examined histologically by hematoxylin and eosin staining for counting the preneoplasia and tumors.

[7] = H1975, IL-6 50 ng/mL 1 hr, compared to CS3M or lipofectamine alone
[8] = 8 weeks post-treatment, vs CS3M

pSTAT3 and total STAT3 in H1975 cells, sequence (P40763 2-770 limits assumed): as the sequence (P40763 2-770 limits assumed, one chain of several) above

CS3D (DNA GATTTACGGGAAATGCSCATTTCCC; cyclic decoy with two hexaethylene glycol linkers, further chemistry not given here)
toxicity in normal cells (normal lung fibroblasts): minimal | IC50 in normal lung fibroblasts and bronchial epithelial cells relative to tumor cells (normal lung fibroblasts; fold higher than in NSCLC cell lines): 100 fold | reduction in nuclear pSTAT3 [1, 7]: 35% | reduction in nuclear total STAT3 [1, 7]: 35% | effect on cytoplasmic pool of total STAT3 ([1]; H1975, IL-6 stimulated): little effect | ratio of pSTAT3-ubiquitin complex to STAT3 (densitometry) [2]: 0.95 | IL-6 levels in the airways ([3]; 8 weeks after completion of therapy, vs CS3M): upregulated | COX-2 expression ([3]; 8 weeks after end of treatment, vs CS3M): increase | VEGF staining in the airways [3, 8]: decrease | activated phospho-STAT3 protein [3, 8]: long-term reduction | phospho-NF-kB activation [3, 8]: decrease | endothelial marker CD31 expression ([3]; premalignant stage, data not shown): suppresses | mean decrease of c-Myc protein ([4]; 201T xenografts, CS3D vs CS3M): 70% | reduction of c-Myc gene expression (mRNA) relative to GAPDH ([4]; tumor lysates of 201T and H1975 xenografts (FIG. 7E), compared to CS3M): 60-70% | inhibition in mRNA level of c-Myc (c-Myc mRNA in 201T cells): 50% | toxicology: body weight, organ histology, clinical chemistry [5]: no significant effects on body weight, organ histology, or clinical chemistry; also recorded: no appreciable changes in blood chemistry, weight or organ structure | toxicity (body weight, behavior, liver and spleen) ([6]; 5 mg/kg for 8 weeks): no body weight changes were observed; also recorded: no toxicity observed | higher count of preneoplasia ([6]; 8 weeks after treatment ended, vs CS3M): 43% | lower number of adenomas [6, 8]: 52% | reduction in average number of tumors per animal ([6]; 20 weeks after end of treatment, vs CS3M): approximately 40% and 42% | lower tumor size ([6]; 20 weeks post-treatment, vs CS3M): 49.8% and 50% | fewer preneoplasias on average per animal ([6]; week 1 after 8 week treatment, 5 mg/kg, vs CS3M): approximately 25% | reduction in average number of tumors ([6]; week 1 after 8 week treatment, vs CS3M): 60%

Source: patent US11932850B2, “Cancer chemoprevention with STAT3 blockers” (Jill M. Siegfried, LLC, priority 2018, dated 2024)
